Where a SMILES comes first, the peptide text is derived from it. Bridges are numbered along the chain shown (N, C = ends). [ ]: non-standard residue; d: D form. The star is where a group is joined. hPhe(3-Cl-4-CF3) = N[C@@H](CCc1ccc(C(F)(F)F)c(Cl)c1)C(=O)O; NPrPhe(4-CF3) = CCCN[C@@H](Cc1ccc(C(F)(F)F)cc1)C(=O)O; NMeGly(cPent) = CN[C@H](C(=O)O)C1CCCC1; NMeD = CN[C@@H](CC(=O)O)C(=O)O; NMeL = CN[C@@H](CC(C)C)C(=O)O; Morpholide = C1CN(*)CCO1; Ac5c = NC1(C(=O)O)CCCC1; Aze = O=C(O)[C@@H]1CCN1; NEtG = CCNCC(=O)O; Sar = CNCC(=O)O
Columns and labels:
[1] = molecular target: GDP-bound NRAS wild-type protein (Homo sapiens, UniProt P01111); test: Binding to NRAS by surface plasmon resonance (SPR), Single Cycle Kinetics; conditions: KD ratio NRAS/KRAS, SPR
[2] = molecular target: GDP-bound HRAS wild-type protein (Homo sapiens, UniProt P01112); test: Binding to HRAS by surface plasmon resonance (SPR), Single Cycle Kinetics
[3] = KD ratio HRAS/KRAS, class symbols
[4] = KD ratio HRAS/KRAS, SPR, GDP-bound wild-type proteins

GDP-bound HRAS wild-type protein, sequence (P01112 whole entry): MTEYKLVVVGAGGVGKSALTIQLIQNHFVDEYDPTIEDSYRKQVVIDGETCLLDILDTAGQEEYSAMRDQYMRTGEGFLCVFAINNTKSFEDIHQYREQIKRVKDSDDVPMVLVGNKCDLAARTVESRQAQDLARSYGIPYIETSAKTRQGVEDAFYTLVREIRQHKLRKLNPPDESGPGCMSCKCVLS
GDP-bound NRAS wild-type protein, sequence (P01111 whole entry): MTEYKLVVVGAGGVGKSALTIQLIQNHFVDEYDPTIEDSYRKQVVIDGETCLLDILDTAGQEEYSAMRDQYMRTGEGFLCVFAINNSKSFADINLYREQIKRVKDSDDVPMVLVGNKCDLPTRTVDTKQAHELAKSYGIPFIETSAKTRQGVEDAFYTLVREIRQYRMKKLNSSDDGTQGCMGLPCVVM

## CCCN1C(=O)[C@@H]2CCN2C(=O)CN(CC)C(=O)[C@H]([C@@H](C)CC)NC(=O)[C@H](CC(C)C)N(C)C(=O)C[C@@H](C(=O)N2CCOCC2)N(C)C(=O)[C@H](C2CCCC2)N(C)C(=O)C2(CCCC2)NC(=O)[C@@H]2CCCN2C(=O)[C@H](CCc2ccc(C(F)(F)F)c(Cl)c2)NC(=O)CN(C)C(=O)[C@@H]1Cc1ccc(C(F)(F)F)cc1 [PP0259] ([NMeL]I[NEtG][Aze][NPrPhe(4-CF3)][Sar][hPhe(3-Cl-4-CF3)]P[Ac5c][NMeGly(cPent)][NMeD]-Morpholide; lactam N-11)
[1]
  NRAS/KRAS (ratio of KD for GDP-bound NRAS wild-type to KD for KRAS): C (A compound having a KD ratio of 0.1 or more and less than 3 is denoted as C)
[2]; KD ratio HRAS/KRAS, SPR
  HRAS/KRAS (ratio of KD for GDP-bound HRAS wild-type to KD for KRAS): B (a compound having 3 or more and less than 10 is denoted as B)

## CCC[C@H]1C(=O)N[C@@H](CC(C)C)C(=O)N(C2CC2)CC(=O)N(C)[C@H]2C/C=C\CCN(C2=O)[C@@H](Cc2ccc(C)cc2)C(=O)N(C)CC(=O)N[C@@H](CCc2ccc(C(F)(F)F)c(Cl)c2)C(=O)N2C[C@H](OCC)C[C@H]2C(=O)NC2(CCC2)C(=O)N(C)[C@@H](C2CCCC2)C(=O)N(C)[C@H](C(=O)N(C)C)CC(=O)N1C [PP2543]
[2]; [3]
  HRAS/KRAS (ratio of KD value with respect to GDP-bound HRAS wild-type protein to KD value with respect to KRAS): B (a compound having 3 or more and less than 10 is denoted as B)

## CC[C@H](C)[C@@H]1NC(=O)[C@H](COC)N(C)C(=O)C[C@@H](C(=O)N2CCCCC2)N(C)C(=O)[C@H](C2CCCC2)N(C)C(=O)C2(CC(C)(C)C2)NC(=O)[C@@H]2C[C@@H](OC(C)C)CN2C(=O)[C@H](CCc2cc(F)c(C(F)(F)F)c(F)c2)NC(=O)CN(C)C(=O)[C@H](Cc2ccc(C(F)(F)F)cc2)N2CC/C=C\C[C@@H](C2=O)N(C)C(=O)CN(C)C1=O [PP2663]
[2]; [3]
  HRAS/KRAS (ratio of KD value with respect to GDP-bound HRAS wild-type protein to KD value with respect to KRAS): A (a compound having 10 or more and less than 20 is denoted as A)

## CCO[C@@H]1C[C@H]2C(=O)NC3(CC(C)(C)C3)C(=O)N(C)[C@@H](C3CCCC3)C(=O)N(C)[C@H](C(=O)N(C)C)CC(=O)N(C)[C@H]3CCCCCCc4ccc(cc4)C[C@@H](C(=O)N(C)CC(=O)N[C@@H](CCc4ccc(C(F)(F)F)c(OC)c4)C(=O)N2C1)N1CC/C=C\C[C@@H](C1=O)N(C)C(=O)CN(C1CC1)C(=O)[C@H]([C@@H](C)CC)NC3=O [PP3070]
[2]; [4]
  HRAS/KRAS (ratio of KD value with respect to GDP-bound HRAS wild-type protein to KD value with respect to KRAS): B (a compound having 3 or more and less than 10 is denoted as B)

## CCC(CC)[C@H]1C(=O)N(C)[C@H](C(=O)N(C)C)CC(=O)N(C)[C@@H](COC)C(=O)N[C@@H]([C@@H](C)CC)C(=O)N(C2CC2)CC(=O)N(C)[C@H]2C/C=C\CCN(C2=O)[C@@H](CC2CCCCC2)C(=O)N(C)CC(=O)N[C@@H](CCc2ccc(Cl)c(Cl)c2)C(=O)N2C[C@H](OC(C)C)C[C@H]2C(=O)NC2(CC(C)(C)C2)C(=O)N1C [PP2517]
[2]; SPR, GDP-bound HRAS wild-type vs GDP-bound KRAS wild-type
  HRAS/KRAS (ratio of KD value with respect to HRAS to KD value with respect to KRAS): A (a compound having 10 or more and less than 20 is denoted as A)

## CCC[C@H]1C(=O)N[C@@H]([C@@H](C)CC)C(=O)N(C)CC(=O)N(C)[C@H]2C/C=C\CCN(C2=O)[C@@H](Cc2ccc(C(F)(F)F)cc2)C(=O)N(C)CC(=O)N[C@@H](CCc2ccc(C(F)(F)F)c(OC)c2)C(=O)N2C[C@H](OCC)C[C@H]2C(=O)N(C)C2(CCC2)C(=O)N(C)[C@@H](C2CCCC2)C(=O)N(C)[C@H](C(=O)N2CCCCC2)CC(=O)N1C [PP3103, (2S,8S,12R,14S,20S,23S,27S,30S,36S,38Z)-20-cyclopentyl-12-ethoxy-8-[2-[3-methoxy-4-(trifluoromethyl)phenyl]ethyl]-4,16,19,22,26,32,35-heptamethyl-30-[(1S)-1-methylpropyl]-23-(piperidine-1-carbonyl)-27-propyl-2-[[4-(trifluoromethyl)phenyl]methyl]spiro[1,4,7,10,16,19,22,26,29,32,35-undecazatricyclo[34.5.1.0^10,14]dotetracont-38-ene-17,1′-cyclobutane]-3,6,9,15,18,21,25,28,31,34,42-undecone]
[2]; [4]
  HRAS/KRAS (ratio of KD value with respect to GDP-bound HRAS wild-type protein to KD value with respect to KRAS): A (a compound having 10 or more and less than 20 is denoted as A)

## CCO[C@@H]1C[C@H]2C(=O)NC3(CC(C)(C)C3)C(=O)N(C)[C@@H](C3CCCC3)C(=O)N(C)[C@H](C(=O)N(C)CC)CC(=O)N(C)[C@@H](C3CCC3)C(=O)N[C@@H]([C@@H](C)CC)C(=O)N(C)CC(=O)N(C)[C@H]3C/C=C\CCN(C3=O)[C@@H](Cc3ccc(C(F)(F)F)cc3)C(=O)N(C)CC(=O)N[C@@H](CCc3ccc(C(F)(F)F)c(OC)c3)C(=O)N2C1 [PP1985]
[2]; KD ratio, GDP-bound HRAS wild-type vs GDP-bound KRAS wild-type, SPR
  HRAS/KRAS (ratio of KD value for HRAS to KD value for KRAS): B (a compound having 3 or more and less than 10 is denoted as B)

## CCC[C@H]1C(=O)N[C@@H]([C@@H](C)CC)C(=O)N(C)CC(=O)N(C)[C@H]2C/C=C\CCN(C2=O)[C@@H](Cc2ccc(C)cc2)C(=O)N(C)CC(=O)N[C@@H](CCc2ccc(Cl)c(OC)c2)C(=O)N2C[C@H](OCC)C[C@H]2C(=O)NC2(CC(C)(C)C2)C(=O)N(C)[C@@H](C(CC)CC)C(=O)N(C)[C@H](C(=O)N(C)C)CC(=O)N1C [PP2791]
[2]; [3]
  HRAS/KRAS (ratio of KD value with respect to GDP-bound HRAS wild-type protein to KD value with respect to KRAS): A (a compound having 10 or more and less than 20 is denoted as A)

From patent US20250230193A1, “CYCLIC COMPOUND HAVING SELECTIVE KRAS INHIBITORY EFFECT ON HRAS AND NRAS” (CHUGAI SEIYAKU KABUSHIKI KAISHA, priority 2022, published 2025)
